The text below walks through data of patent publication US20210032344A1, “METHODS OF TREATING TUMOR” (Bristol-Myers Squibb Company, priority 2018, published 2021).

The conditions of series [1]: monotherapy, every two weeks; MTD not reached; cited from earlier work.
The subject of series [2] is stage IV or recurrent NSCLC. The experiment in a line: Phase 3 trial, part 1: first-line nivolumab-based regimens vs chemotherapy; efficacy (PFS, ORR, duration of response). In kind it is in vivo, human.
Description: This trial is an open-label, multi-part phase 3 study of first-line nivolumab and nivolumab-based combinations in biomarker-selected NSCLC populations. […] The study continues for the co-primary endpoint of overall survival in PD-L1-selected patients.
Patients had chemotherapy-naive, stage IV or recurrent NSCLC.
Adult patients with PD-L1-histologically confirmed squamous or nonsquamous stage IV/recurrent NSCLC and Eastern Cooperative Oncology Group (ECOG) performance status (Oken M. M., et al. Am J Clin Oncol 5:649-55 (1982)) of 0 or 1 who had received no prior systemic anticancer therapy as primary therapy for advanced or metastatic disease were eligible for the study. All patients underwent imaging to screen for brain metastases. Patients with known EGFR mutations or ALK translocations sensitive to targeted therapy, an autoimmune disease, or untreated central nervous system metastases were excluded.
All treatments continued until disease progression, unacceptable toxicity, or completion per protocol (up to 2 years for immunotherapy). Crossover between treatment arms within the study was not permitted.
Part 1 of this study had two co-primary endpoints.
Series [3] has as its system patients with stage IV or recurrent NSCLC. The conditions noted are these: in vivo.
Description: Overall response rates (ORR), duration of response, and safety were exploratory endpoints. Adverse events were graded according to the National Cancer Institute Common Terminology Criteria for Adverse Events, version 4.0.

For the substance nivolumab, the “maximum tolerated dose (MTD)” value in series [1] is given as above 10 mg/kg. Moreover, the “median PFS” value in series [2] (TMB ≥10 mutations/Mb and ≥1% PD-L1 expression) is given as 4.2 months; in series [2] (TMB ≥13 mutations/Mb and ≥1% PD-L1 expression), 4.2 months. For the same substance, in series [2] (in vivo), the “PFS hazard ratio (HR), nivolumab vs. chemotherapy” value is recorded as 0.95. Also, the “safety / tolerability (in words)” value in series [3] is recorded as “well tolerated”.
